Results reported in US20250154180A1, “CRK-LIKE (CRKL) ADAPTOR PROTEIN INHIBITORS AND METHODS OF MAKING AND USING THE SAME” (Rutgers, The State University of New Jersey, priority 2022, published 2025).

Key:
PBMC cells = assay: Annexin V/PI apoptosis, PBMC; assay type: cell-based, human; conditions: various concentrations, 24 hours
Procedure: (§1) Annexin V/PI Staining—Experimental cells were collected, washed with 1×PBS, resuspended in the binding buffer, and stained with an Annexin V-FITC assay Kit (Millipore Sigma). The cells were incubated with 50 μg/ml Annexin V in 1× binding buffer at room temperature for 15 minutes, then 10 μg/ml propidium iodide for another 15 minutes and analyzed by flow cytometry (EPICS XL). Annexin V-positive/PI-negative cells were considered early apoptotic, cells with both Annexin V and PI-positive to be late apoptotic, and Annexin V negative but PI-positive to be “necrotic.” The percent of apoptosis was calculated as the sum of the percentages of both early and late apoptotic cells.
(§2) To figure out the features of cytotoxic effects of Pomiferin on breast cancer cells. Pomiferin-treated breast cancer cells were stained with an Annexin V/PI kit and measured them with Flow Cytometry.

MDA-MB-231 cells = assay: MTT proliferation assay, MDA-MB-231; assay type: cell-based
Procedure: (§3) MTT assay—The MTT assay was used to detect cell proliferation. Briefly, cells were plated in a 96-well plate at a density of 50,000 cells/well in 200 μl of culture medium with candidate drugs to be tested (DMSO as a negative control). The treated cells were incubated for four hours a 37° C. with a 5% CO2 incubator to allow dark crystals to form at the bottom of the wells. After culturing for 48 hours, 10 ml of MTT reagent was added to each well and mixed gently for one minute. After aspirating the culture medium from each well, 100 μl of crystal dissolving solution was added to each well and incubated for 10 minutes at RT. The signal was quantified by measuring the absorbance in each sample at 570 nm using a microplate reader.
Compound II is referred to as “NC5-SO2F” in FIGS. 7A-7C.
Cell proliferation was first determined by MTT assay as confirmation. […] CrkL is known to mediate the activation of both Raf/ERK and PI3K pathways. So, proteins that relate to these two pathways were utilized.

MDA-MB-468 cells = assay: Annexin V/PI apoptosis, MDA-MB-468; assay type: cell-based; conditions: 10 uM, 24 hours
Procedure: as §1, §2

[1] = tested on: CD147-CAR-NK killing in BXPC3 cells; assay: Cr51 release assay, CD147-CAR-NK killing of BXPC3; assay type: cell-based; conditions: 1 uM overnight
Procedure: (§4) In this example, activity of NC5 was evaluated for PBNK and CD147-CAR-NK killing in BXPC3 cells. PBNK or CD147-CAR-NK cells were incubated with 1 uM NC5 overnight, then cells were harvested for Cr51 release assay to check cell cytotoxicity. […] The star symbol indicates the significance of vehicle vs. NC5 of the indicated E:T ratios. *p<0.05, **p<0.01, n=3.

MDA-231-GFP-LUC cells = assay: MTT assay, MDA-231-GFP-LUC; assay type: cell-based; conditions: five M Pomiferin for three days
Procedure: as §3, with “After culturing for 48 hours, 10 ml of MTT reagent was added to each well and mixed gently for one minute.” left out
To further test the inhibitory specificity of Pomiferin for specific breast cancer cell lines, The survival percentage was compared between different hematopoietic cancer cell lines and healthy PBMCs.

[2] = tested on: PBNK cells killing activity towards MDA-MB-231; assay: Cr51 release assay, PBNK killing of MDA-MB-231; assay type: cell-based; conditions: 1 uM overnight
Procedure: PBNK cells were incubated with 1 uM NC5 or Compound III overnight, then cells were harvested for Cr51 release assay to check cell cytotoxicity. […] The star symbol indicates the significance of vehicle control vs. NC5 of the indicated E:T ratios. *p<0.05, **p<0.01, n=3.

[3] = tested on: PBNK killing in BXPC3 cells; assay: Cr51 release assay, PBNK killing of BXPC3; assay type: cell-based; conditions: 1 uM overnight
Procedure: as §4

P-ERK1/2 in PBMC = assay: Western blotting, PBMC; assay type: cell-based, human; conditions: NC5 1, 5, 10 uM, 24 hours
[4] = tested on: pCrkL in MDA-MB-231-LUC cells; assay: Flow cytometry of intracellular pCrkL/CrkL, MDA-MB-231-LUC; assay type: cell-based; conditions: three M Pomiferin for six days
From the text: The cells were labeled with total CrkL or phosphor-CrkL by Alexa Fluor 647 (AF-647) and stained with secondary antibodies conjugated with AF-647 as staining control. […] The star symbol indicates the significance of vehicle vs. Pomiferin of the indicated concentration. *p<0.05, **p<0.005, ***p<0.0005. Data represent mean±SEM, n=4.
The intracellular pCrkL level from breast cancer cell lines between Pomiferin-treated and vehicle control groups was examined.

[5] = tested on: TM00089 TNBC patient-derived tumor; assay: TNBC patient-derived xenograft (PDX) TM00089 model; assay type: in vivo, mice
From the text: For the patient-derived xenograft (PDX) model, a cohort of mice engrafted with the TNBC tumor model #TM00089-Breast-Tumor Markers: TNBC ER−(estrogen receptor-negative)/PR—(progesterone receptor-negative)/HER2—(human epidermal growth factor receptor two negative), BRCA1 V757fs (4 to 6-weeks-old females) were obtained from Jackson Laboratories (Bar Harbor, ME). PDX models were generated by surgically engrafting tumor cells into the mammary fat pad of NSG™ (nonobese diabetic, severe combined immunodeficiency, interleukin-2 receptor gamma chain-null) mice.
To determine inhibition efficacy in vivo of Pomiferin in the TNBC clinical patient tumor, the therapeutic efficacy of Pomiferin in a patient-derived tumor xenograft mouse from the Jackson Laboratory PDX Live™ library was evaluated. The TM00089 breast invasive ductal carcinoma was selected, characterized as TNBC ER^−/PR^−/HER2^−, BRCA1^V757fs since TNBC tumors with BRCA1 mutations are generally the most aggressive and have the worst prognosis within the first five years after diagnosis compared to other types of breast cancers.

## CC(C)=CCc1c2c(c3occ(-c4ccc(O)c(O)c4)c(=O)c3c1O)C=CC(C)(C)O2 [Pomiferin, 3′,4′,5-Trihydroxy-6″,6″-dimethyl-6-(3-methylbut-2-en-1-yl)-6″H-pyrano[2″,3″:7,8]isoflavone]
PBMC cells
  apoptosis: limited responses
MDA-MB-231 cells; 1 uM, 5 uM and 10 uM, 24 hours
  cell proliferation (MTT): significantly inhibited cell proliferation
MDA-MB-231 cells; 2.5 μM, 48 hours, vs DMSO
  cell proliferation (MTT): blocked cell proliferation
MDA-MB-468 cells
  percentage of apoptotic cells: significantly increased
[1]
  CD147-CAR-NK killing (Cr51 release): increased
MDA-231-GFP-LUC cells
  sensitivity to Pomiferin (survival percentage, MTT): most sensitive cell to Pomiferin treatment
[2]
  PBNK cells killing activity (Cr51 release): increased PBNK cells killing activity
[3]
  PBNK killing (Cr51 release): increased
P-ERK1/2 in PBMC
  P-ERK1/2 levels (Western blotting): minimal changes
[4]
  total CrkL expression: not many differences in total CrkL expression
[4]; vs vehicle
  intracellular pCrkL level: reduced the intracellular pCrkL level
[5]; 5.0 μg/g Pomiferin vs vehicle
  tumor growth: significantly more inhibited
[5]; Pomiferin 5 μg/g
  median survival, fold longer than vehicle control: 1.4 fold
[5]; Pomiferin 5 μg/g, vehicle 39 days
  median survival: 53 days
[5]; vs vehicle, during drug treatment period
  body weights: not significantly different
